Like-named read-outs stand apart in the source and are kept apart here.
Columns and labels:
CpIMPDH [1] = target: T1, CpIMPDH (Cryptosporidium parvum, UniProt Q8T6T2); experiment: biochemical; type: biochemical; conditions: for CpIMPDH inhibition, result in words: relative to parent anilide
T1 sequence (Q8T6T2 1-400): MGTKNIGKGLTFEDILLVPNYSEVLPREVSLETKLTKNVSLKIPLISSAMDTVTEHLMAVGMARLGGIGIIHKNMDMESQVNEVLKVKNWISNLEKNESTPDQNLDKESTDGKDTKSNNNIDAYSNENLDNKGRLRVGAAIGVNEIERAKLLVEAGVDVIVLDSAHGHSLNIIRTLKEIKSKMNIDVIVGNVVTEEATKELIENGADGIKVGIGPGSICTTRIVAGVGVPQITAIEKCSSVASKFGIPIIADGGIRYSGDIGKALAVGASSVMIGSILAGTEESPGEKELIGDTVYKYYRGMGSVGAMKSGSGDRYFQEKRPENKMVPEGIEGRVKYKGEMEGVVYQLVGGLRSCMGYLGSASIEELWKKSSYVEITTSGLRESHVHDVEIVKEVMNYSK

HsIMPDH2 = HsIMPDH2 (Homo sapiens, UniProt P12268); experiment: HsIMPDH2 enzyme inhibition; type: biochemical
MtbIMPDH = MtbIMPDH (Mycobacterium tuberculosis, UniProt P9WKI7); experiment: MtbIMPDH inhibition; type: biochemical
HsIMPDH1 = conditions: read-out: HsIMPDH1 Ki; cited from earlier work
CpIMPDH [2] = target: T1, CpIMPDH; conditions: read-out: CpIMPDH Ki; cited from earlier work
[3] = ratio of Ki,app of the two enantiomers

Sequence of MtbIMPDH (P9WKI7 whole entry, looked up): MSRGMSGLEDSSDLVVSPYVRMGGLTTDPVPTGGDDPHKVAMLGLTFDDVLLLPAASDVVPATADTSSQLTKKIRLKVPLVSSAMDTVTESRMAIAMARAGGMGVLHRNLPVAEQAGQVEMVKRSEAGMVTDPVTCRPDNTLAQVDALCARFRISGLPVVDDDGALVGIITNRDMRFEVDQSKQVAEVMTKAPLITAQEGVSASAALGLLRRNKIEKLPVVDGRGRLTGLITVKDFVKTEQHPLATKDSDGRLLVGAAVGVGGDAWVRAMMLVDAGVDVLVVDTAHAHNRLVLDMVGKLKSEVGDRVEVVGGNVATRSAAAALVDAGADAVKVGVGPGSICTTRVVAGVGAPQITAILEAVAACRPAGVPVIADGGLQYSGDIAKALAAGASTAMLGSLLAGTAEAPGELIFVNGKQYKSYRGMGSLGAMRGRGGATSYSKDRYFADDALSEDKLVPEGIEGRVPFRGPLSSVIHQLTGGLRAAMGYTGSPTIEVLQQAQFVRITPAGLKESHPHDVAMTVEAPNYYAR

Structure (SMILES)	Ki (CpIMPDH [1]) [nM]	Ki (HsIMPDH2) [nM]	further results
COc1c(C)c2c(c(O)c1C/C=C(\C)CCC(=O)Nc1ccc(F)cc1)C(=O)OC2 [Compound 13]	180		
COc1c(C)c2c(c(O)c1C/C=C(\C)CCC(=O)Nc1cccc(Cl)c1Cl)C(=O)OC2 [Compound 11]			CpIMPDH inhibition, result in words (CpIMPDH [1]): loss of CpIMPDH inhibitory activity
COc1c(C)c2c(c(O)c1CCOCC(=O)Nc1ccc(Cl)cc1)C(=O)OC2 [Compound 38]	405	870	
COc1c(C)c2c(c(O)c1C/C=C(\C)CCC(=O)N(C)c1ccc(Cl)cc1)C(=O)OC2 [Compound 16]			CpIMPDH inhibition, result in words (CpIMPDH [1]): loss of activity
COc1c(C)c2c(c(O)c1CC(=O)Nc1ccc(Cl)cc1)C(=O)OC2 [Compound 44]	2800	800	
COc1c(C)c2c(c(O)c1C/C=C(\C)CCC(=O)Nc1ccc(Cl)c(C(F)(F)F)c1)C(=O)OC2 [Compound 10]			Ki (MtbIMPDH): 60 nM
COc1c(C)c2c(c(O)c1C/C=C(\C)CCC(=O)O)C(=O)OC2 [MPA, Mycophenolic acid]			Ki (HsIMPDH1): 33 nM; Ki (CpIMPDH [2]): 9300 nM
COc1c(C)c2c(c(O)c1C/C=C(\C)CCC(=O)Nc1ccc(C(F)(F)F)cc1)C(=O)OC2 [Compound 14]	151		

Now from value to compound, other results behind:

Ki (CpIMPDH [1]) [nM]	Ki (HsIMPDH2) [nM]	Structure (SMILES)	further results
66	460	COc1c(C)c2c(c(O)c1C[C@@H]1C[C@@]1(C)CCC(=O)Nc1ccc(Cl)c(C(F)(F)F)c1)C(=O)OC2 [Compound 31b]	eudysmic ratio of 31b and 31a for CpIMPDH inhibition (CpIMPDH [1]; [3]): 8.6; eudysmic ratio of 31b and 31a for HsIMPDH inhibition (HsIMPDH2; [3]): 3.1
570	1400	COc1c(C)c2c(c(O)c1C[C@H]1C[C@]1(C)CCC(=O)Nc1ccc(Cl)c(C(F)(F)F)c1)C(=O)OC2 [Compound 31a]	
450	290	COc1c(C)c2c(c(O)c1CCCC(=O)Nc1ccc(Cl)cc1)C(=O)OC2 [Compound 42b]	
480	550	COc1c(C)c2c(c(O)c1C/C=C/C(=O)Nc1ccc(Cl)cc1)C(=O)OC2 [Compound 42a]	

Reference: paper PMC9511823 (Bioorganic & medicinal chemistry letters, 2020)
